“Also recorded” adds a separate entry of the source.
Biological target: T1, methionyl tRNA synthetase (MetRS) (Escherichia coli, UniProt P00959)
T1 sequence (P00959 1-548 limits assumed): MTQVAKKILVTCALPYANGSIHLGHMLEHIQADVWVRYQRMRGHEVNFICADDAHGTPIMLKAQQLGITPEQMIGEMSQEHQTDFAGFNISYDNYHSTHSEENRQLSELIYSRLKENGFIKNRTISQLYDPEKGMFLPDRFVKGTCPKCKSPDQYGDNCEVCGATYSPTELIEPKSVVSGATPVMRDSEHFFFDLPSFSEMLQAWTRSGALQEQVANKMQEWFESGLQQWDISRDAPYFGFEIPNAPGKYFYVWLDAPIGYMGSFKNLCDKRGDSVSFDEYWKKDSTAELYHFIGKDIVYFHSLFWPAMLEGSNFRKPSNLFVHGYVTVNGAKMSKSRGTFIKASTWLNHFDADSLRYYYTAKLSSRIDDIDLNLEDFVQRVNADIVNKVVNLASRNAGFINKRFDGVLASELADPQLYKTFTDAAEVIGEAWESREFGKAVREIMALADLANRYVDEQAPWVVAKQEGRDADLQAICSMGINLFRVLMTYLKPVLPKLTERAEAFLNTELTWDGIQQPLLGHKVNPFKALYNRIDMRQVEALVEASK
Test: ATP-PPi exchange assay: activation of methionine and methionine analogues by MetRS
Assay type: biochemical, E. coli
Design: The fully active, truncated form of methionyl tRNA synthetase (MetRS) was purified from overnight cultures of JM101 cells carrying the plasmid pGG3; made in house; host or cells: E. coli JM101 carrying plasmid pGG3
Details: for fold lower kcat/Km (less efficiently activated) than methionine: relative to methionine
Text: The fully active, truncated form of methionyl tRNA synthetase (MetRS) was purified from overnight cultures of JM101 cells carrying the plasmid pGG3. (The plasmid, which encodes the tryptic fragment of MetRS, Ghosh, G.; Brunie, S.; Schulman, L. H. J. Biol. Chem. 1991, 266, 17136-17141). The enzyme was purified by size exclusion chromotography as previously described (Mellot, P.; Mechulam, Y.; LeCorre, D.; Blanquet, S.; Fayat, G. J. Mol. Biol. 1989, 208, 429). Activation of methionine analogues by MetRS was assayed via the amino-acid-dependent ATP-PPi exchange reaction, also as previously described (Mellot, P.; Mechulam, Y.; LeCorre, D.; Blanquet, S.; Fayat, G. J. Mol. Biol. 1989, 208, 429; Blanquet, S.; Fayat, G.; Waller, J.-P. Eur. J. Biochem. 1974, 44, 343; Ghosh, G.; Pelka, H.; Schulman, L. H. Biochemistry 1990, 29, 2220). The assay, which measures the ^32P-radiolabeled ATP formed by the enzyme-catalyzed exchange of ^32P-pyrophosphate (PPi) into ATP, was conducted in 150 μl of reaction buffer (pH 7.6, 20 mM imidazole; 0.1 mM EDTA, 10 mM β-mercaptoethanol, 7 mM MgCl2, 2 mM ATP, 0.1 mg/ml BSA, and 2 mM PPi (in the form of sodium pyrophosphate with a specific activity of approximately 0.18 TBq/mole)). […] Kinetic parameters for analogue 5 were obtained with an enzyme concentration of 75 nM and analogue concentrations of 100 μM to 10 mM. Parameters for methionine were obtained by using concentrations ranging from 10 μM to 1 mM. […] Aliquots of 20 μl were removed from the reaction mixture at various time points and were quenched in 0.5 ml of a solution comprising 200 mM PPi, 7% w/v HClO4, and 3% w/v activated charcoal. The charcoal was rinsed twice with 0.5 mL of a 10 mM PPi, 0.5% HClO4 solution and was then resuspended in 0.5 mL of this solution and counted via liquid scintillation methods. Kinetic constants were calculated by nonlinear regression analysis.
The fully active, truncated form of MetRS was purified from overnight cultures of JM101 cells carrying the plasmid pGG3. The enzyme was purified by size exclusion chromotography as previously described (P. Mellot, Y. Mechulam, D. LeCorre, S. Blanquet, G. Fayat, J. Mol. Biol. 1989, 208, 429-443). Activation of methionine analogues by MetRS was assayed at 25° C. via the amino acid-dependent ATP-PPi exchange reaction, also as described in Example I (G. Ghosh, H. Pelka, L. H. Schulman, Biochemistry 1990, 29, 2220-2225). […] Kinetic parameters for analogue 5 were obtained with an enzyme concentration of 50 nM and analogue concentrations of 100 μM to 10 mM. Kinetic parameters for analogue 11 were determined using an enzyme concentration of 50 nM and analogue concentrations ranging from 750 μM to 20 mM. Kinetic parameters for analogues 4, 7, 8, and 12 were obtained with an enzyme concentration of 50 or 75 nM and analogue concentrations ranging from 5 to 70 mM. Parameters for methionine were obtained by using concentrations ranging from 10 μM to 1 mM. […] Kinetic constants were calculated by nonlinear regression analysis.
The fully active, truncated form of MetRS was purified from overnight cultures of E. coli JM101 cells carrying the plasmid pGG3 (Kim, H. Y.; Ghosh, G.; Schulman, L. H.; Brunie, S.; Jakubowski, H. Proc. Natl. Acad. Sci. USA 1993, 90, 11553-11557), by using size exclusion methods previously reported (Mellot, P.; Mechulam, Y.; LeCorre, D.; Blanquet, S.; Fayat, G. J. Mol. Biol. 1989, 208, 429-443). Purified enzyme solutions (in 10 mM phosphate, pH 6.7, 10 mM (β-mercaptoethanol) were concentrated to at least 3 μM prior to their storage in 40% glycerol at −20° C. Concentrations of enzyme stocks were determined by the Bradford method, using samples of MetRS quantified by amino acid analysis as standards.

[1] = 75 nM enzyme, 5 mM L-isomer, 20 minutes
[2] = ATP-PPi exchange, purified truncated MetRS

| Compound | rate/level of PPi exchange (activation by MetRS), in words [1] | fold lower kcat/Km (less efficiently activated) than methionine | also measured |
| --- | --- | --- | --- |
| C/C=C/CC(N)C(=O)O (racemic) [Analogue 5, trans-2-amino-4-hexenoic acid] | very slow exchange of PPi; also recorded: neither recognized efficiently; also recorded: slow exchange of PPi | 4700 fold |  |
| C=CCCC(N)C(=O)O (racemic) [Analogue 2, DL-2-amino-5-hexenoic acid] | rates similar to that of norleucine (9); also recorded: several-fold lower than methionine | 1850 fold |  |
| CCC[C@H](N)C(=O)O [Analogue 8, L-norvaline] | very slow exchange of PPi |  |  |
| 2-butynylglycine [Analogue 11] | very slow exchange of PPi; also recorded: slow exchange of PPi | 13825 fold | Km [2]: 38.6 mM; kcat [2]: 1.51 ± 0.5 s⁻¹ |
| C/C=C\CC(N)C(=O)O (racemic) [Analogue 4, cis-2-amino-4-hexenoic acid] | does not cause measurable exchange of PPi; also recorded: very slow exchange of PPi |  |  |
| CCCC[C@H](N)C(=O)O [Analogue 9, L-norleucine] |  | 1050 fold |  |
| C=CCC(N)C(=O)O (stereo not shown) [Analogue 12, allylglycine] | very slow exchange of PPi |  |  |
| CSCC[C@H](N)C(=O)O [Analogue 1, L-methionine, reference compound] |  |  | amount of PPi exchanged at a reaction time of 20 minutes [1]: 9 mmol |
| C#CCCC(N)C(=O)O (racemic) [Analogue 3, DL-homopropargylglycine] | rates similar to that of norleucine (9); also recorded: several-fold lower than methionine | 500 fold |  |
| CCCCCC(N)C(=O)O (racemic) [Analogue 7, DL-2-aminoheptanoic acid] | very slow exchange of PPi |  |  |

Source: patent publication US7723070B2, “Overexpression of aminoacyl-tRNA synthetases for efficient production of engineered proteins containing amino acid analogues” (California Institute of Technology, priority 2000, dated 2010)
